Holding throughout (type): cell-based
In experiment [1] the target is wild-type human cardiac sodium channel, hNav1.5 (Homo sapiens, UniProt Q14524). Briefly: Late INa screening assay (QPatch whole cell patch clamp, tefluthrin-enhanced late sodium current). The conditions noted are these: HEK293 hNav1.5, late INa activated with 10 μM Tefluthrin. The essentials:
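Automated whole-cell patch clamp of HEK293 cells stably expressing hNav1.5 (no β subunits), 23-25 °C. Late current enhanced by 10 μM tefluthrin, 250 ms steps to −20 mV from −120 mV at 0.1 Hz, measured 225-250 ms. Compounds typically 1 μM, three additions over 7-8 min; % block normalised to 0 Na baseline.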
On the technique in general: Patch clamp records ionic current or voltage across a cell membrane.

The next experiment deals with T1, human Nav1.1 (Homo sapiens, UniProt P35498).
T1 construct: expressed in transfected cells; host or cells: HEK293, transient transfection (Qiagen Superfect), α1:β1:β2 at 10:1:1
Briefly: Nav1.1 use-dependent block, whole-cell voltage clamp, 10 Hz pulse train. The conditions noted are these: Chantest conditions, read-out: NAV1.1 UDB-10 HZ % Inhibition.

The next experiment concerns the target T2, hNav1.2 sodium channel (Homo sapiens, UniProt Q99250).
T2 construct: expressed in transfected cells
Briefly: Nav1.2 use-dependent block, whole-cell voltage clamp, 10 Hz pulse train. The conditions noted are these: Chantest conditions, read-out: NAV1.2 UDB-10 HZ % Inhibition. From the text:
Wild-type (WT) cDNA stably transfected in Chinese hamster ovary (CHO) cells is used to record INa. Unless otherwise noted, all reagents are purchased from Sigma-Aldrich (St Louis, Mo., U.S.A.).
Whole-cell voltage-clamp recordings are used to measure the biophysical properties of WT. Briefly, the pipette solution consists of (in mM) 110 CsF, 10 NaF, 20 CsCl, 2 EGTA, 10 HEPES, with a pH of 7.35 and osmolarity of 300 mOsmol/kg. The bath (control) solution contains in (mM): 145 NaCl, 4 KCl, 1.8 CaCl2, 1 MgCl2, 10 dextrose, 10 HEPES, with a pH of 7.35 and osmolarity of 310 mOsmol/kg. Cells are allowed to stabilize for 10 min after establishment of the whole-cell configuration before current is measured. Series resistance is compensated 90% to assure that the command potential is reached within microseconds with a voltage error<2 mV. Leak currents are subtracted by using an online P/4 procedure and all currents are low-pass Bessel filtered at 5 kHz and digitized at 50 kHz.
Tonic block of peak current is measured using a step to −10 mV (20 ms) from a holding potential of −120 mV (0.2 Hz). Use-dependent block of peak current is measured during pulse number 300 of a pulse train (−10 mV, 5 ms, 300 pulses, 10 Hz or 25 Hz) from a holding potential of −120 mV. Currents are then normalized to the peak current recorded in response to the first pulse in each frequency train. For tonic block studies, peak current is evaluated in response to a 20 ms depolarization to −10 mV (0.2 Hz). Two sequential pulse train stimulations are averaged to obtain mean current traces for each recording condition, which are then used for offline subtraction and analysis.
A stock solution of 10 mM compound of Formula I is prepared in 0.1 M HCl or DMSO. A fresh dilution of the compound of Formula I in the bath solution is prepared every experimental day and the pH is readjusted to 7.35 as necessary. The final DMSO concentration was kept at 0.1% in all solutions. Direct application of the perfusion solution to the clamped cell is achieved using the Perfusion Pencil system (Automate, Berkeley, Calif.). Direct cell perfusion is driven by gravity at a flow rate of 350 μL/min using a 250 micron tip. This system sequesters the clamped cell within a perfusion stream and enables complete solution exchange within 1 second. The clamped cell is perfused continuously starting immediately after establishing the whole-cell configuration. Control currents are measured during control solution perfusion.
Solutions are perfused for three minutes prior to current recordings to allow equilibrium (tonic) drug block. Tonic block of peak currents is measured from this steady-state condition. Three sequential current traces are averaged to obtain a mean current for each recording. The mean current traces are utilized for offline analysis.

For the next experiment, the target named is hNav1.5 Peak INa (Homo sapiens, UniProt Q14524). Briefly: Peak INa screening assay (tonic block and use-dependent block). On the procedure:
The assay uses an HEK293 (human embryonic kidney) cell line heterologously expressing the wild-type human cardiac sodium channel, hNav1.5, purchased from Millipore (Billerica, Mass.). No beta subunits were coexpressed with the Na channel alpha subunit. Cells are maintained with standard tissue culture procedures and stable channel expression is maintained with 400 μg/mL Geneticin in the culture medium. […] Experiments are carried out at 23-25° C. […] Currents through open sodium channels are automatically recorded and stored in the Sophion Bioscience Oracle database (Sophion Bioscience, Copenhagen, Denmark). Analysis is performed using QPatch Assay and database software and data are compiled in Excel. Compound stocks are routinely made by the Gilead Sample Bank in plastic vials to 10 mM in dimethyl sulfoxide (DMSO). […] Stocks are sonicated as necessary. […] Compounds are diluted in extracellular solution to 1 μM in glass vials and then transferred to glass well plates before robotic addition to the cells. […] Good separation between the concentrations of test compound to reduce late and peak INa is beneficial to enable separation of the desired effect to reduce late INa-induced electrical and mechanical dysfunction from the undesired effect to reduce peak INa, which can lead to slowing or block of conduction of electrical excitation in the heart. It is contemplated that the compounds of Formula I avoid significant block of peak INa. […] Analysis of peak INa generally requires correction for rundown before determining the % block of peak current by the tested compound. […] Use-dependent block refers to the accumulation of block with increased frequency of channel activation. […] It is therefore expected that reduction of peak INa by compounds of this disclosure will be greater at high heart rates, such as those during tachyarrhythmias, than at normal heart rates. […] The intracellular solution used for the Peak INa assay is the same as outlined for the Late INa assay (see above). […] After establishing the whole cell recording configuration, channels were stimulated to open with low frequency stimulation (0.1 Hz) for 7 minutes so that the recording can be monitored and the extent to which the recording has stabilized can be assessed. […] Both TB and UDB were analyzed by incorporating rundown correction for the peak INa and UDB as calculated by compensating for the small use-dependent effect of the stimulation protocol on peak INa in the absence of compound.

Setting [2] is: at 1 μM, 3 Hz stimulation, holding potential −100 mV, read-out: Peak UDB (use-dependent block of peak INa) % Inhibition.
The mark [3] stands for this setting: read-out: Peak TB (tonic block of peak INa) % Inhibition.

Like-named read-outs stand apart in the source and are kept apart here.

T2 sequence (Q99250 whole entry): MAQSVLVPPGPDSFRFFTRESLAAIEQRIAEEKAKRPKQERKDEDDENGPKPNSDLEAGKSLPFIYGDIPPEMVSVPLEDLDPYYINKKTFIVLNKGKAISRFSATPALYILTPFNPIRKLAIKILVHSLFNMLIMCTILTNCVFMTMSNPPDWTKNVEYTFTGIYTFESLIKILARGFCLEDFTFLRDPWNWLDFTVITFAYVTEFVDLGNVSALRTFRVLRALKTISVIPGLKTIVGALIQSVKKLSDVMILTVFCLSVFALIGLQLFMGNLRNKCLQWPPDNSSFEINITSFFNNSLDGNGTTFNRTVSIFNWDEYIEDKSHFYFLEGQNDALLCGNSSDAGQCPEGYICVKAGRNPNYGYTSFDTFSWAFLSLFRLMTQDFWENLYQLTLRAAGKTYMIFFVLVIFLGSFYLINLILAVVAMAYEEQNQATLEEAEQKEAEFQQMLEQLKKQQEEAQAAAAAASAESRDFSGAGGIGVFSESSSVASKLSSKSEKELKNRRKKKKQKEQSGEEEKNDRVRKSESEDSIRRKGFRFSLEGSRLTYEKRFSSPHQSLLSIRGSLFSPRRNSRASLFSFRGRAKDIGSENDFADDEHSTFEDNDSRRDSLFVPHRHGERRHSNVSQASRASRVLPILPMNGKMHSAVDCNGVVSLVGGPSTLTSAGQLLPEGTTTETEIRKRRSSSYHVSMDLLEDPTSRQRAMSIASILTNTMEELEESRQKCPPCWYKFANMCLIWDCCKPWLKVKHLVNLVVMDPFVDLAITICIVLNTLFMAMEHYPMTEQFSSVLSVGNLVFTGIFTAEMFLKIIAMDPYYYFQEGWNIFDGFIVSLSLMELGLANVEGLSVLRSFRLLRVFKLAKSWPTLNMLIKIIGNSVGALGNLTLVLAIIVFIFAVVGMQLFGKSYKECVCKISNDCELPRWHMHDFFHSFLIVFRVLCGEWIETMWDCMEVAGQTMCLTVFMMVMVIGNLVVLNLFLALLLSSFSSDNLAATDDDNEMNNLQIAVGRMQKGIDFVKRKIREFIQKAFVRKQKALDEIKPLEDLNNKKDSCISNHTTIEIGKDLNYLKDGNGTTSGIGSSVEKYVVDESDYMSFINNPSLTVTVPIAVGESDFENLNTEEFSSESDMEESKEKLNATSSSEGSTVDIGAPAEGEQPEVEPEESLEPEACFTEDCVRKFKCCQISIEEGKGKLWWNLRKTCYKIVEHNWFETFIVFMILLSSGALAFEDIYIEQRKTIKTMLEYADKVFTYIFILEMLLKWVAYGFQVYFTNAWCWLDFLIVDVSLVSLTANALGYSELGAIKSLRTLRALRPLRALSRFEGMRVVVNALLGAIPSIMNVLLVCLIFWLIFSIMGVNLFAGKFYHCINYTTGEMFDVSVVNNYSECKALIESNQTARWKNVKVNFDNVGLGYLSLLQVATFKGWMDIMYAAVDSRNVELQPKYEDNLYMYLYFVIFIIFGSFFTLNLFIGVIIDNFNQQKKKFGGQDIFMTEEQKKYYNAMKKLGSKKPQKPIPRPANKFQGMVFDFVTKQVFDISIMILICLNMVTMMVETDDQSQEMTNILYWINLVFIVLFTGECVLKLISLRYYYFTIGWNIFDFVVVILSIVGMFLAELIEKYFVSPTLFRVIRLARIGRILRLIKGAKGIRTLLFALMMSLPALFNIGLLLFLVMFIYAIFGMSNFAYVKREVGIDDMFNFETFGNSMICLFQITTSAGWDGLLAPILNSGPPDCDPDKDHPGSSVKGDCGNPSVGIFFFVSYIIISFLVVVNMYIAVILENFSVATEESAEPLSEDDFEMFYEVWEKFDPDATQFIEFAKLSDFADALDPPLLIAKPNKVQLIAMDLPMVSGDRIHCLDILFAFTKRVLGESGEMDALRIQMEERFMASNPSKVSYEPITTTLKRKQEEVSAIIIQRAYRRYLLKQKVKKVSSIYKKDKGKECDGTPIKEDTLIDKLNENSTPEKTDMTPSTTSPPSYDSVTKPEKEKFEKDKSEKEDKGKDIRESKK
Chain of hNav1.5 Peak INa (Q14524 whole entry): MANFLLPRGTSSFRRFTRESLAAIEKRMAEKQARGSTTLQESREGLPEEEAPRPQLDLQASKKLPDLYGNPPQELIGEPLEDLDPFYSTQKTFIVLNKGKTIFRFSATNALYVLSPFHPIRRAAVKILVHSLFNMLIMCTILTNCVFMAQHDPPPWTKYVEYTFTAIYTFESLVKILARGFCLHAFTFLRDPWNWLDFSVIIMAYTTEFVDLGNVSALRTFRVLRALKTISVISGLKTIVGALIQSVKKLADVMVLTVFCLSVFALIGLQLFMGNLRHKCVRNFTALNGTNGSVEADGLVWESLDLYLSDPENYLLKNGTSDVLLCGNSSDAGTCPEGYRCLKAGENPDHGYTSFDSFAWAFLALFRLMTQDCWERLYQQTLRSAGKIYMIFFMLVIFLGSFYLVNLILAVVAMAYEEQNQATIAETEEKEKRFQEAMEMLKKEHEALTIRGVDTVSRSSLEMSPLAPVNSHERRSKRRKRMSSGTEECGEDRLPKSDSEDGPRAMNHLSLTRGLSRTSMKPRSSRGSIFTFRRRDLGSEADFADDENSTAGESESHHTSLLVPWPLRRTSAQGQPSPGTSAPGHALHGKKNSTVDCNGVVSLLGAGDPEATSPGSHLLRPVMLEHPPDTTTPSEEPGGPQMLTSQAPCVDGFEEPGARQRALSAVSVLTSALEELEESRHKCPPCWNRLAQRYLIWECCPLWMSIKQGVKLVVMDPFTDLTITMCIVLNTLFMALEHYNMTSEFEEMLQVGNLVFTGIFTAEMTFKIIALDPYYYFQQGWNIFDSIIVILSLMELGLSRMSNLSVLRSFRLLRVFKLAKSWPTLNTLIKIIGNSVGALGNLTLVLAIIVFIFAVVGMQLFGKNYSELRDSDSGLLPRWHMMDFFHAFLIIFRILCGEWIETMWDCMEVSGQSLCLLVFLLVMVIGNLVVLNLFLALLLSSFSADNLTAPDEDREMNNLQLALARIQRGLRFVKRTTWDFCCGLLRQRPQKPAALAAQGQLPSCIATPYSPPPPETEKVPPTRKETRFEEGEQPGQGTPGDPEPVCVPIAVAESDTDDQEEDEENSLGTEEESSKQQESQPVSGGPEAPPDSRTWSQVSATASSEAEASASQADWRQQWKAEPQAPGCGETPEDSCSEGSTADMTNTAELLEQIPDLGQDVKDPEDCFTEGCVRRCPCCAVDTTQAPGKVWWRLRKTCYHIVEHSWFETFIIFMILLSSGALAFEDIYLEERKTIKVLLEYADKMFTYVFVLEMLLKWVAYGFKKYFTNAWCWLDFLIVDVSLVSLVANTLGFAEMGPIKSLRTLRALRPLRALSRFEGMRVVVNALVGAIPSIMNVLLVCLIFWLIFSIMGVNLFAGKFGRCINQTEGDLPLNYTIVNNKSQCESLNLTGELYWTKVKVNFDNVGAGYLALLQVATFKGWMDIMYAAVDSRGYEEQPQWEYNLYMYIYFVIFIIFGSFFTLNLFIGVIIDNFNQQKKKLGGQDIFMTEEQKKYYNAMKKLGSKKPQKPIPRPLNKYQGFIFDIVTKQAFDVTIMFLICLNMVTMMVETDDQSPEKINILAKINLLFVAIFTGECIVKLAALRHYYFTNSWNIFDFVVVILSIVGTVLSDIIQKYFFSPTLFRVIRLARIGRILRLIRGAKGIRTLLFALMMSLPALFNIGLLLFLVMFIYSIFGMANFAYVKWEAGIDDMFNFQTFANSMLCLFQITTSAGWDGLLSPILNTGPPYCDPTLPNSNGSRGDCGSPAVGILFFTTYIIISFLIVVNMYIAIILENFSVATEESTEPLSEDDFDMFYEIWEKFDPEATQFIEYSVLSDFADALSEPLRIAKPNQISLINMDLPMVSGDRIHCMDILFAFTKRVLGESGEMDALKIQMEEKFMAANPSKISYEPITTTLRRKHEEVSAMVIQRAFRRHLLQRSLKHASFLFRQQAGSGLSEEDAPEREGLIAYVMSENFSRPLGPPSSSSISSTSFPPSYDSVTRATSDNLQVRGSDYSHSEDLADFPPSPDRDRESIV

Take `FC(F)(F)c1ccc(-c2ccc3c(c2)-c2nccn2CCO3)cc1` [Compound I-1, 10-(4-(trifluoromethyl)phenyl)-5,6-dihydrobenzo[f]imidazo[1,2-d][1,4]oxazepine]: the inhibition (as a rule, the relative decrease from the control value, in per cent) at 1 µM in experiment [1] was 32%; at human Nav1.1, -12%; on hNav1.2 sodium channel it was 2%.
For `FC(F)(F)Oc1ccc(-c2ccc3c(c2)-c2nccn2CCO3)cc1` [Compound I-2, 10-(4-(trifluoromethoxy)phenyl)-5,6-dihydrobenzo[f]imidazo[1,2-d][1,4]oxazepine] the same measures were 31%, 1% and 18%.
`Cc1cnc2n1CCOc1ccc(-c3ccc(C(F)(F)F)cc3)cc1-2` [Compound I-6, 3-methyl-10-(4-(trifluoromethyl)phenyl)-5,6-dihydrobenzo[f]imidazo[1,2-d][1,4]oxazepine]: the values for the inhibition at 1 µM (in experiment [1]; at human Nav1.1; on hNav1.2 sodium channel) were 28%, -10% and -3%, respectively.
With `FC(F)(F)c1ccc(-c2ccc3c(c2)-c2ncc(C4CC4)n2CCO3)cc1` [Compound I-9, 3-cyclopropyl-10-(4-(trifluoromethyl)phenyl)-5,6-dihydrobenzo[f]imidazo[1,2-d][1,4]oxazepine], the inhibition at 1 µM was found to be 4% in experiment [1], 4% at human Nav1.1 and 0% on hNav1.2 sodium channel.
For `CC(C)(O)c1cnc2n1CCOc1ccc(-c3ccc(C(F)(F)F)cc3)cc1-2` [Compound I-10, 2-(10-(4-(trifluoromethyl)phenyl)-5,6-dihydrobenzo[f]imidazo[1,2-d][1,4]oxazepin-3-yl)propan-2-ol], the inhibition at 1 µM was 10% in experiment [1], -5% at human Nav1.1 and 0% on hNav1.2 sodium channel.
For `FC(F)(F)c1ccc(-c2ccc3c(c2)-c2ncc(Cc4ccccc4)n2CCO3)cc1` [Compound I-11, 3-benzyl-10-(4-(trifluoromethyl)phenyl)-5,6-dihydrobenzo[f]imidazo[1,2-d][1,4]oxazepine] the same measures were 13%, -5% and -5%.
For `FC(F)(F)c1ccc(-c2ccc3c(c2)-c2ncc(Br)n2CCO3)cc1` [Compound I-12, 3-bromo-10-(4-(trifluoromethyl)phenyl)-5,6-dihydrobenzo[f]imidazo[1,2-d][1,4]oxazepine] the same measures were 4%, -7% and 6%.
In the same order, the values of `FC(F)(F)c1ccc(-c2ccc3c(c2)-c2ncc(Cl)n2CCO3)cc1` [Compound I-13, 3-chloro-10-(4-(trifluoromethyl)phenyl)-5,6-dihydrobenzo[f]imidazo[1,2-d][1,4]oxazepine] are 6%, -3% and 8%.
As for `Cc1c(Cl)nc2n1CCOc1ccc(-c3ccc(C(F)(F)F)cc3)cc1-2` [Compound I-14, 2-chloro-3-methyl-10-(4-(trifluoromethyl)phenyl)-5,6-dihydrobenzo[f]imidazo[1,2-d][1,4]oxazepine], the inhibition at 1 µM in experiment [1] was 11%; on human Nav1.1 it was 0%; on hNav1.2 sodium channel, 4%.
On to `FC(F)(F)c1ccc(-c2ccc3c(c2)C(N2CCC(c4ccccn4)C2)=NCCO3)cc1` (stereo not drawn) [II-60, 5-(3-(pyridin-2-yl)pyrrolidin-1-yl)-7-(4-(trifluoromethyl)phenyl)-2,3-dihydrobenzo[f][1,4]oxazepine], for which the inhibition at 1 µM came to 42% in experiment [1], 25% on hNav1.5 Peak INa (setting [2]) and 10% on hNav1.5 Peak INa (setting [3]).
For `CC(C)(C)OC(=O)N1CCC(NC2=NCCOc3ccc(-c4ccc(C(F)(F)F)cc4)cc32)C1` (stereo not drawn) [II-62, tert-butyl 3-(7-(4-(trifluoromethyl)phenyl)-2,3-dihydrobenzo[f][1,4]oxazepin-5-ylamino)pyrrolidine-1-carboxylate] the same measures were 43%, 32% and 8%.
For `CC(C)(C)OC(=O)N1CC[C@@H](NC2=NCCOc3ccc(-c4ccc(C(F)(F)F)cc4)cc32)C1` [II-63, (R)-tert-butyl 3-(7-(4-(trifluoromethyl)phenyl)-2,3-dihydrobenzo[f][1,4]oxazepin-5-ylamino)pyrrolidine-1-carboxylate], the values for the inhibition at 1 µM (in experiment [1]; at hNav1.5 Peak INa (setting [2]); at hNav1.5 Peak INa (setting [3])) were 51%, 31% and 12%, respectively.

The values are drawn from patent US9695192B2, “Fused heterocyclic compounds as ion channel modulators” (GILEAD SCIENCES, INC., priority 2011, dated 2017).
